Results: patent US10610602B2, “Tumor cell-specific responsive self-assembling drug nanoconjugate” (KOREA INSTITUTE OF SCIENCE AND TECHNOLOGY, priority 2017, dated 2020)
Entries after “also recorded” stand apart in the source; their conditions may differ. Like-named read-outs stand apart in the source and are kept apart here. Residues, ends and D or L forms follow the SMILES beside them. No end group written: not given here. *: point of attachment. Doxorubicin(3'-N) = COc1cccc2c1C(=O)c1c(O)c3c(c(O)c1C2=O)C[C@@](O)(C(=O)CO)C[C@@H]3O[C@H]1C[C@H](N*)[C@H](O)[C@H](C)O1

Experiments:
[1] = Non-enzymatic hydrolysis in PBS buffer only, HPLC; assay type: physicochemical; details: 37° C., 9 h
Protocol: The drug conjugate of Example 1 was allowed to react with other enzymes (10 μg/ml cathepsins D, E, and L) and PBS buffer only (in this case, a non-enzymatic hydrolysis product was obtained) and the reaction products were analyzed by HPLC at 37° C. for 9 h.

[2] = test system: HT29 tumor; assay: Doxorubicin accumulation in tumor tissues after intravenous administration, near-infrared fluorescence
Protocol: (§1) In this example, the in vivo anticancer effects of doxorubicin (Free DOX) and FRRG-DOX (SEQ ID NO: 7) of Example 1 were investigated. First, 1×10^7 HT-29 cells were directly injected into the right flank of each tumor animal model constructed in 1) (n=4 per group). When the tumor size reached ˜250-300 mm3, doxorubicin (Free DOX, 5 mg/kg) and FRRG DOX (SEQ ID NO: 7) of Example 1 (5 mg/kg) were administered intravenously once every three days for 15 days.
(§2) The therapeutic efficacies of Free DOX, FRRG-DOX (SEQ ID NO: 7), and the control were compared by measuring the tumor volumes (maximum diameter×minimum diameter 2×0.53) for 15 days. The viabilities and weights of the tumor animal models were measured once a day for 15 days. The accumulations of Free DOX and FRRG-DOX (SEQ ID NO: 7) in the tumor tissues of the tumor animal models were monitored using IVIS Lumina Series III (PerkinElmer, Massachusetts, USA). The fluorescence intensities of Free DOX and FRRG-DOX (SEQ ID NO: 7) in the tumor tissues were quantified using the Living Image software (PerkinElmer, Massachusetts, USA).

[3] = test system: H9C2 cells (normal cells); assay type: cell-based, Rattus
Protocol: (§3) First, HT-29 cells were plated in a 96-well plate at a density of 1×10^4 cells/well. […] Then, […] of CCK solution was added to each well. After further culture for 30 min, the absorbance of each 96-well plate at 450 nm was analyzed using a microplate reader (VERSAmax™, Molecular Devices Corp., Sunnyvale, Calif.). For comparison, the cell viabilities (%) of H9C2 cells (normal cells) were measured in the same manner as described above.

[4] = rat, in vivo
[5] = test system: HT29 tumor; details: for viability (survival rate) of animal tumor models: for 16 days, FIG. 4C; for apoptosis in organ tissues (annexin V staining): heart, spleen, tumor tissues, FIG. 4D
Protocol: as §1, with “˜200 mm^3,” for “˜250-300 mm3,”, “by tail vein injection” for “intravenously”
as §2
Annexin V staining was performed to confirm that apoptosis occurred in tumor tissues excised from the tumor animal models. First, section slides (10 μm) of the excised tumor tissues were washed three times with DPBS, incubated with annexin V solution (200 μl of a binding buffer containing 5 μl of annexin V-Cy5.5) at 37° C. for 20 min, incubated with DAPI at room temperature for 15 min, placed on cover glass, and observed under a confocal laser microscope.

[6] = test system: hiPSC-CMs; assay: Multi-electrode array (MEA) analysis; assay type: cell-based, human; details: FRRG-DOX 0.2 μM; doxorubicin 0.1 μM; compared to the baseline
Protocol: Multi-electrode array analysis was conducted by the following procedure. First, human induced pluripotent stem cell-derived cardiomyocytes (hiPSC-CMs, Cellular Dynamics International [CDI], Madison, Wis., USA) were thawed in a 100 mm culture dish. After 1 week, the thawed hiPSC-CMs were plated in an MEA plate coated with fibronectin solution (50 μg/ml). On day 2 after thawing, the plating medium was replaced with a maintenance medium (CDI). Maintenance media were replaced with new ones every 2-3 days. Only 50% of the culture media were replaced with new ones. 2 weeks after plating in the plate, field potentials of spontaneously beating cardiomyocytes were recorded using a Maestro system (Axion Biosystems Inc., Atlanta, Ga., USA). The waveforms of the extracellular field potentials were recorded 10 min after the equilibration period. Inter-spike interval and extracellular field potential duration (FPD) were analyzed and quantified. To minimize the influence of the beat rate on FPD, corrected FPD (FPDcF) was calculated using Fridericia's formula 1: FPDcF=FPD/[inter−spike interval]1/3 (1)

[7] = Electrocardiography (ECG) analysis; assay type: in vivo, ICR mice; details: intravenous; 5 mg/kg doxorubicin or 10 mg/kg FRRG-doxorubicin; versus control
Protocol: ECG analysis was performed under the approval of the Institutional Animal Care and Use Committee at the Korea Institute of Toxicology. All procedures were performed according to the National Institutes of Health guidelines for the care and use of laboratory animals. A mixture of isoflourane and oxygen as an anaesthetic gas was injected at a rate of 2 cc/min to ICR mice (25-35 g, Orient Bio Inc., Seoul, Korea). ECG was measured before injection of the anaesthetic gas into an animal bio amp (ADinstruments Pty Ltd, Bella Vista, Australia). The measured ECG was defined as baseline. For 6 h after injection of the anaesthetic gas, ECG was measured. All mice were injected intravenously with saline, 5 mg/kg doxorubicin (in saline) or 10 mg/kg FRRG-doxorubicin (SEQ ID NO: 7) (Example 1) (in saline). The measured ECG data were analyzed using the LabChart 8 software (ADinstruments Pty Ltd, Bella Vista, Australia). Corrected QT (QTc) was calculated using Van de Water's formula 2 and Bazett's formula 3: QTc−V=0.087[(60/HR)−1] (2) QTc−B=QT/(RR)1/2 (3)

[8] = Heart damage markers in blood samples; details: versus control (saline), FIG. 4E
[9] = test system: cells; assay: Cellular and nuclear uptake of drug conjugates of Examples 2-4, confocal microscopy; assay type: cell-based; details: for absorption into cells / antitumor effects or intracellular uptake effects: FIGS. 5C and 5D
Text: In FIG. 5D, “Cytosol “and “Nucleus” indicate the fluorescence intensities of DOX measured in cytosol and cell nuclei, respectively.

[10] = Nanoparticle size by dynamic light scattering; assay type: physicochemical; details: FIG. 5B
Protocol: The size distribution was measured using Zetasizer Nano ZS (Malvern Instruments, Worcestershire, U.K).

[11] = test system: HT-29 cells; assay: In vitro cell viability (CCK); assay type: cell-based, human; details: HT29, FIG. 5E
Protocol: as §3

[12] = 5 mg/kg tail vein once every three days for 15 days
[13] = intravenous, DAPI-stained tissue sections, FIG. 3G

Compound | toxicity to normal cells in tumor animal models [5, 12] | viability (survival rate) of animal tumor models [5] | apoptosis in organ tissues (annexin V staining) [5] | FPD [6] | FPDcF [6] | doxorubicin accumulation in tumor tissues [2, 13] | absorption into cells [9] | antitumor effects or intracellular uptake effects [9] | measured sizes of the nanoparticles [10] | other results
COc1cccc2c1C(=O)c1c(O)c3c(c(O)c1C2=O)C[C@@](O)(C(=O)CO)C[C@@H]3O[C@H]1C[C@H](NC(=O)CNC(=O)[C@H](CCCNC(=N)N)NC(=O)[C@H](CCCNC(=N)N)NC(=O)[C@H](Cc2ccccc2)NC(C)=O)[C@H](O)[C@H](C)O1 [FRRG-DOX] (Ac-FRRG-{Doxorubicin(3'-N)}) | no toxicity was observed | 100% | apoptosis was observed only in the tumor tissues | remained substantially unchanged | remained substantially unchanged | – | – | – | – | stability in phosphate buffered saline [1]: very stable in phosphate buffered saline; doxorubicin accumulation in tumor tissues ([2]; mouse, in vivo, iv): doxorubicin was accumulated in the tumor tissues; cell viability compared with group treated with doxorubicin alone (Free DOX) [3]: significant difference in cell viability; levels of markers indicative of heart damage (hs troponin-T, Troponin-I, CK-MM, CPK total) [4]: about two times lower than or comparable to those in the control
COc1cccc2c1C(=O)c1c(O)c3c(c(O)c1C2=O)C[C@@](O)(C(=O)CO)C[C@@H]3O[C@H]1C[C@H](NC(=O)CNC(=O)[C@H](CCCNC(=N)N)NC(=O)[C@H](CCCNC(=N)N)NC(C)=O)[C@H](O)[C@H](C)O1 [RRG-DOX] | – | – | – | – | – | could not be effectively accumulated in tissues | – | – | – | fluorescence intensity of doxorubicin in excised tumor tissues ([2]; 5 mg/kg intravenous, FIG. 3E/3F): low fluorescence intensity
COc1cccc2c1C(=O)c1c(O)c3c(c(O)c1C2=O)C[C@@](O)(C(=O)CO)C[C@@H]3O[C@H]1C[C@H](N)[C@H](O)[C@H](C)O1 [doxorubicin] | Toxicity to normal cells was observed | mortality began to increase rapidly | apoptosis was observed in all of the heart, spleen, and tumor tissues | significantly low compared to the baseline | significantly low compared to the baseline | could not be effectively accumulated in tissues | – | – | – | QTc values [7]: extended compared to those measured in the control; weight of the tumor animal models ([5]; 5 mg/kg tail vein once every three days): began to decrease; inhibition of tumor growth (tumor volume) [5, 12]: significantly inhibit tumor growth; levels of markers indicative of heart damage (hs troponin-T, Troponin-I, CK-MM, CPK total) [8]: higher levels of all markers
FRRGGGGG-DOX (FRRGGGGG-doxorubicin) | – | – | – | – | – | – | not readily absorbed into cells | showed antitumor effects or intracellular uptake effects | 300-700 nm | –
GGFRRGGG-DOX (GGFRRGGG-doxorubicin) | – | – | – | – | – | – | readily absorbed into cells | showed antitumor effects or intracellular uptake effects | 50-200 nm | uptake into cell nuclei relative to drug conjugates of Examples 1 and 2 ([9]; FIG. 5D): 10 times lower
GGGGFRRG-DOX (GGGGFRRG-doxorubicin) | – | – | – | – | – | – | – | showed antitumor effects or intracellular uptake effects | 200-600 nm | antitumor effect (cell viability of HT29) [11]: same antitumor effect as DOX; also recorded: most effective in antitumor action
